For test [1], the target named is T1, OE19 (3A1) (Homo sapiens, UniProt P30838).
T1 sequence (P30838 1-453): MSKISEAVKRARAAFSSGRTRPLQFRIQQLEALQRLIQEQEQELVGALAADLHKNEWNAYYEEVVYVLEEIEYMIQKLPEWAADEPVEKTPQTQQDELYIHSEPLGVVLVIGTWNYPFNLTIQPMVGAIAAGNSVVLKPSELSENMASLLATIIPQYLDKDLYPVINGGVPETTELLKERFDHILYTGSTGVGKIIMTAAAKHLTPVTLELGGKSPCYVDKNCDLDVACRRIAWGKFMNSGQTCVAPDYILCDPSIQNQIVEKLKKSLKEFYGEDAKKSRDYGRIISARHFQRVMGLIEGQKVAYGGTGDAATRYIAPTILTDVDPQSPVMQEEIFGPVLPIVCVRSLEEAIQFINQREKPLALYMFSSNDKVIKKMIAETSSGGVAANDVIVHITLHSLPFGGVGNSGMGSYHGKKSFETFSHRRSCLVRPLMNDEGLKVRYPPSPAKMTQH
In words: Cellular ALDEFLUOR assay in OE19 cells (preferential ALDH3A1 expression).

Test [2] has as its target T2, Human ALDH3A1 (Homo sapiens, UniProt P30838).
T2 sequence (P30838 1-453): T1 sequence (P30838 1-453)
In words: ALDH3A1 biochemical assay (benzaldehyde/NADP+, diaphorase-resazurin readout, 1,536-well). Background: Alamar Blue is a resazurin reagent that responds to reducing activity.

The mark [3] stands for this setting: Table S5, biochemical curve class.
Setting [4] is: Table S4, biochemical curve class.

The values below come from article PMC13266984 (Journal of medicinal chemistry, 2026).

For orientation: AC50 means the midpoint of the concentration-response curve, whichever way the signal moves.

Consider `O=C(NCc1cccc(N2CCC[S+]2(=O)[O-])c1)c1csc(N2CCN(c3cccc(C(F)(F)F)c3)CC2)n1` [NCGC01407948-01], for which the Cell_Efficacy in test [1] (Table S5, OE19 cells) came to 0.00. The molecule further came in with a Cell_CC-v2 in test [1] (Table S5, cellular curve class) of 5. Further, the AC50 in test [2] was 631 nM. In test [2] (Table S5, biochemical), this molecule had an Efficacy of -52.77. This molecule also gave a CC-v2 in test [2] (setting [3]) of -1.2.
On to `Cc1cccc(CNC(=O)c2csc(N3CCN(c4ccc(C)c(C)c4)CC3)n2)c1` [NCGC01211295-01], for which the AC50 in test [1] was determined as 2210 nM; in test [2], 1020 nM. For the same molecule, in test [1] (Table S4, OE19 cells), the Cell_Efficacy is recorded as -85.13. This molecule returned a Cell_CC-v2 in test [1] (Table S4, cellular curve class) of -1.3. Further, the Efficacy in test [2] (Table S4, biochemical) is listed as -92.09. Further, in test [2] (setting [4]), the CC-v2 is -1.1.
Turning to `COc1ccc(N2CCN(c3nc(C(=O)NCc4cccc(C)c4)cs3)CC2)cc1O` [NCGC01211394-01], the AC50 in test [1] came to 15700 nM; in test [2] it was 1150 nM. Moreover, the Cell_Efficacy in test [1] (Table S4, OE19 cells) is listed as -88.85. This molecule yielded a Cell_CC-v2 in test [1] (Table S4, cellular curve class) of -2.3. Further, the Efficacy in test [2] (Table S4, biochemical) was -71.12. The CC-v2 in test [2] (setting [4]) is reported as -1.2.
Turning to `Cc1ccc(CNC(=O)c2csc(N3CCN(c4cccc(C(F)(F)F)c4)CC3)n2)cc1C(F)(F)F` [NCGC01407772-01], the AC50 was 644 nM in test [1] and 59.6 nM in test [2]. For the same molecule, in test [1] (Table S5, OE19 cells), the Cell_Efficacy is -100.81. The Cell_CC-v2 in test [1] (Table S5, cellular curve class) is -1.1. Besides, the Efficacy in test [2] (Table S5, biochemical) is on record as -88.60. In test [2] (setting [3]), this molecule had a CC-v2 of -1.1.
For `Cc1cccc(COc2ccc(CNC(=O)c3csc(N4CCN(c5cccc(C(F)(F)F)c5)CC4)n3)cc2)c1` [NCGC01407816-01], the results for the AC50 in test [1] and in test [2] were 20000 nM and 200 nM, respectively. Also, the Cell_Efficacy in test [1] (Table S5, OE19 cells) is reported as -99.22. The molecule also yielded a Cell_CC-v2 in test [1] (Table S5, cellular curve class) of -1.1. The Efficacy in test [2] (Table S5, biochemical) is reported as -21.51. This molecule also registered a CC-v2 in test [2] (setting [3]) of 5.
Take `O=C(NCc1ccc(Cl)c(F)c1)c1csc(N2CCN(c3cccc(C(F)(F)F)c3)CC2)n1` [NCGC01407936-01]: the half-maximal activity concentration (AC50) in test [1] stood at 965 nM; in test [2], 12.6 nM. In test [1] (Table S5, OE19 cells), this molecule returned a Cell_Efficacy of -88.16. This molecule also gave a Cell_CC-v2 in test [1] (Table S5, cellular curve class) of -1.1. The same molecule had an Efficacy in test [2] (Table S5, biochemical) of -100.15. This molecule showed a CC-v2 in test [2] (setting [3]) of -1.1.
`CCc1ccc(N2CCN(c3nc(C(=O)NCc4cccc(C)c4)cs3)CC2)cc1Cl` [NCGC01211398-01]: the AC50 was determined as 2480 nM in test [1] and 580 nM in test [2]. Besides, the Cell_Efficacy in test [1] (Table S4, OE19 cells) is -99.68. For the same molecule, in test [1] (Table S4, cellular curve class), the Cell_CC-v2 is -1.1. The Efficacy in test [2] (Table S4, biochemical) is -91.75. The CC-v2 in test [2] (setting [4]) is reported as -1.1.
Turning to `Cc1cccc(CNC(=O)c2csc(N3CCN(c4ccc([S+](=O)([O-])F)cc4)CC3)n2)c1` [NCGC01211171-01], the AC50 was determined as 1970 nM in test [1] and 1150 nM in test [2]. This molecule showed a Cell_Efficacy in test [1] (Table S4, OE19 cells) of -83.98. Also, the Cell_CC-v2 in test [1] (Table S4, cellular curve class) is -1.1. In addition, the Efficacy in test [2] (Table S4, biochemical) was -53.27. The CC-v2 in test [2] (setting [4]) is -1.2.
`Cc1cccc(CNC(=O)c2csc(N3CCN(c4cccc(Br)c4)CC3)n2)c1` [Compound 10]: the AC50 is 200 nM in test [1] and 410 nM in test [2]. The molecule also gave a Cell_Efficacy in test [1] (Table S4, OE19 cells) of -86.93. For the same molecule, in test [1] (Table S4, cellular curve class), the Cell_CC-v2 was -1.3. In test [2] (Table S4, biochemical), the Efficacy is given as -94.28. The same molecule displayed a CC-v2 in test [2] (setting [4]) of -1.1.
Consider `Cc1ccc(-c2cccc(CNC(=O)c3csc(N4CCN(c5cccc(C(F)(F)F)c5)CC4)n3)c2)cc1` [Compound 19], for which the AC50 in test [1] was determined as 10.2 nM; in test [2] it was 23.7 nM. The Cell_Efficacy in test [1] (Table S5, OE19 cells) is on record as -77.01. The Cell_CC-v2 in test [1] (Table S5, cellular curve class) is -1.1. Moreover, the Efficacy in test [2] (Table S5, biochemical) is on record as -83.86. Further, the CC-v2 in test [2] (setting [3]) is given as -1.1.
Consider `O=C(NCc1cccc(N2CCCC2=O)c1)c1csc(N2CCN(c3cccc(C(F)(F)F)c3)CC2)n1` [NCGC01397385-01], for which the figures for the AC50 in test [1] and in test [2] were 17800 nM and 708 nM, respectively. In addition, in test [1] (Table S5, OE19 cells), the Cell_Efficacy came out at 23.55. Further, the Cell_CC-v2 in test [1] (Table S5, cellular curve class) came out at 5. In test [2] (Table S5, biochemical), this molecule gave an Efficacy of -71.46. In addition, the CC-v2 in test [2] (setting [3]) is -1.2.
As for `COc1ccc(N2CCN(c3nc(C(=O)NCc4cccc(C)c4)cs3)CC2)c(OC)c1` [NCGC01211174-01], the half-maximal activity concentration (AC50) was determined as 8810 nM in test [1] and 1150 nM in test [2]. The same molecule registered a Cell_Efficacy in test [1] (Table S4, OE19 cells) of -87.39. The molecule also registered a Cell_CC-v2 in test [1] (Table S4, cellular curve class) of -1.1. The Efficacy in test [2] (Table S4, biochemical) is -66.83. The CC-v2 in test [2] (setting [4]) is on record as -1.2.
Turning to `CC(C)(O)c1ccc(CNC(=O)c2csc(N3CCN(c4cccc(C(F)(F)F)c4)CC3)n2)cc1` [NCGC01408044-01], the AC50 in test [1] turned out to be 11.2 nM; in test [2], 891 nM. This molecule also displayed a Cell_Efficacy in test [1] (Table S5, OE19 cells) of -68.37. The molecule further returned a Cell_CC-v2 in test [1] (Table S5, cellular curve class) of 5. Moreover, the Efficacy in test [2] (Table S5, biochemical) is reported as -74.78. In test [2] (setting [3]), this molecule gave a CC-v2 of -1.2.
As to `O=C(NCc1cccc(C(=O)N2CCCCC2)c1)c1csc(N2CCN(c3cccc(C(F)(F)F)c3)CC2)n1` [NCGC01407977-01], in test [1], the activity was half-maximal at 50100 nM (AC50). Further, in test [1] (Table S5, OE19 cells), the Cell_Efficacy is given as -33.22. In test [1] (Table S5, cellular curve class), this molecule returned a Cell_CC-v2 of 5. In test [2] (Table S5, biochemical), this molecule displayed an Efficacy of -16.69. The CC-v2 in test [2] (setting [3]) was determined as 4.
For the molecule `Cc1cccc(CNC(=O)c2csc(N3CCN(c4cccc(C#N)c4)CC3)n2)c1` [NCGC01210664-01], the AC50 in test [1] was 11100 nM; in test [2], 1020 nM. The molecule also registered a Cell_Efficacy in test [1] (Table S4, OE19 cells) of -103.93. Besides, in test [1] (Table S4, cellular curve class), the Cell_CC-v2 is -2.1. The molecule also returned an Efficacy in test [2] (Table S4, biochemical) of -83.70. The same molecule registered a CC-v2 in test [2] (setting [4]) of -1.1.
In the case of `Cc1cccc(CNC(=O)c2csc(N3CCN(c4cccc(OC(F)(F)F)c4)CC3)n2)c1` [NCGC01219289-01], the concentration at half-maximal activity (AC50) in test [1] turned out to be 990 nM; in test [2], 730 nM. Besides, the Cell_Efficacy in test [1] (Table S4, OE19 cells) is -93.51. The molecule further came in with a Cell_CC-v2 in test [1] (Table S4, cellular curve class) of -1.1. The molecule also yielded an Efficacy in test [2] (Table S4, biochemical) of -97.63. For the same molecule, the CC-v2 in test [2] (setting [4]) is -1.1.
In the case of `O=C(NCc1ccc2c(c1)CCC2)c1csc(N2CCN(c3cccc(C(F)(F)F)c3)CC2)n1` [NCGC01407784-01], the figures for the AC50 in test [1] and in test [2] were 40.7 nM and 18.8 nM, respectively. Moreover, the Cell_Efficacy in test [1] (Table S5, OE19 cells) is listed as -74.47. In test [1] (Table S5, cellular curve class), this molecule returned a Cell_CC-v2 of -1.2. The molecule also yielded an Efficacy in test [2] (Table S5, biochemical) of -99.55. The same molecule gave a CC-v2 in test [2] (setting [3]) of -1.1.
On to `O=C(NCc1ccc(C(F)F)c(F)c1)c1csc(N2CCN(c3cccc(C(F)(F)F)c3)CC2)n1` [NCGC01407984-01], for which the AC50 in test [1] worked out at 242 nM; in test [2] it was 14.1 nM. In test [1] (Table S5, OE19 cells), the Cell_Efficacy is -105.03. This molecule also registered a Cell_CC-v2 in test [1] (Table S5, cellular curve class) of -2.2. The Efficacy in test [2] (Table S5, biochemical) is -99.03. Also, the CC-v2 in test [2] (setting [3]) is recorded as -1.1.
Regarding `Cc1cccc(CNC(=O)c2csc(N3CCN(c4cccc([S+](C)(=O)[O-])c4)CC3)n2)c1` [NCGC01210723-01], the AC50 in test [1] is 1240 nM; in test [2], 3640 nM. Further, the Cell_Efficacy in test [1] (Table S4, OE19 cells) is given as -75.10. Besides, the Cell_CC-v2 in test [1] (Table S4, cellular curve class) was -1.2. The same molecule showed an Efficacy in test [2] (Table S4, biochemical) of -72.64. In test [2] (setting [4]), this molecule showed a CC-v2 of -1.2.
`O=C(NCc1ccc2cc(Cl)ccc2c1)c1csc(N2CCN(c3cccc(C(F)(F)F)c3)CC2)n1` [NCGC01407805-01]: the AC50 in test [1] is 965 nM; in test [2], 2.8 nM. In test [1] (Table S5, OE19 cells), this molecule registered a Cell_Efficacy of -69.34. Moreover, the Cell_CC-v2 in test [1] (Table S5, cellular curve class) is -1.4. The same molecule gave an Efficacy in test [2] (Table S5, biochemical) of -102.00. In addition, the CC-v2 in test [2] (setting [3]) is listed as -1.1.
